From patent US11318190B2, “Methods and compositions for treating liver disease” (UNITED STATES GOVERNMENT AS REPRESENTED BY THE DEPARTMENT …, priority 2017, dated 2022)

Tested on: dnTGF-βRII mice
Assay: dnTGF-βRII mice 12 wk (early stage PBC model) treated 1 wk by osmotic minipump
Type: in vivo, mouse
Conditions: dnTGF-βRII 12 wk
Experimental: Briefly, we used wild-type (WT), dnTGFβRII 12 wk and dnTGFβRII 34 wk mice treated with control or SR antagonist (SCT 5-27) minipump (10 μg/kg/day) for 1 wk. Hepatic damage was shown by H&E. IBDM and cholangiocyte proliferation were measured by immunohistochemistry for CK-19 and Ki67, respectively. Biliary apoptosis was evaluated by TUNEL staining. Senescence was measured in cholangiocytes by immunofluorescence for CCL2 or p16 co-stained with CK-19 (to image bile ducts) and SA-β-Galactosidase activity. Hepatic fibrosis was assessed by qPCR for collagen-1a and α-SMA in total liver, and quantification of Sirius Red staining. Hepatic stellate cell (HSC) activation was evaluated by immunofluorescence (IF) for Syp-9. HSC senescence was evaluated by IF for CCL2 or p16 co-stained with desmin (to visualize HSCs). Secretin levels in serum and bile were measured by EIA. Bile and serum were obtained from human control, early PBC and advanced PBC patients, and secretin was evaluated by EIA.
All animal procedures were performed according to protocols approved by the Baylor Scott & White Health IACUC Committee. Transgenic mice expressing a dominant-negative form of the human transforming growth factor-beta receptor II (dnTGF-βRII) were obtained from Dr. M. Eric Gershwin at UC Davis Health (Sacramento, Calif.), and background-matched wild-type (WT, strain C57BL/6) mice were purchased from Charles River Laboratories (Wilmington, Mass.); the breeding colony is established in our animal facility. Animals were maintained in micro-isolator cages in a temperature-controlled environment with 12/12-hr light/dark cycles and fed ad libitum standard chow with free access to drinking water. Studies were performed in 12 wk-old WT mice, and 12 wk-old (mimic early stage PBC) and 32 wk-old (mimic late stage PBC) female and male dnTGF-βRII mice (25-30 gm) that were treated with either saline, secretin (Sct; 2.5 nmoles/kg body weight per day; Bachem, Torrance, Calif.) or the secretin receptor (SR) antagonist, Sec 5-27 (10 μg/kg body weight per day; Thermo Fisher Scientific, Waltham, Mass.) for 1 wk by intraperitoneally implanted osmotic minipump. Liver tissue samples and blocks (formalin-fixed, paraffin-embedded and OCT-embedded), serum, bile, cholangiocytes, and cholangiocyte supernatants (after incubation at 37° C. for 4 hr) were collected as described.
Hematoxylin and eosin (H&E) staining was performed in formalin-fixed, paraffin-embedded liver sections (4-5 μm, 3 samples from 3 different animals) to determine liver morphology. H&E stained liver sections were evaluated by a board-certified pathologist to assess the degree of lobular damage, hepatic necrosis and portal inflammation. At least 10 different portal areas were evaluated for each parameter. Liver sections were examined in a coded fashion by BX-51 light microscopy (Olympus, Tokyo, Japan) equipped with a camera (See, Mancinelli, R et al., Ischemia reperfusion of the hepatic artery induces the functional damage of large bile ducts by changes in the expression of angiogenic factors. Am J Physiol Gastrointest Liver Physiol 2015; 309:G865-873 (2015); Taffetani S et al., Prolactin stimulates the proliferation of normal female cholangiocytes by differential regulation of Ca2+-dependent PKC isoforms, BMC Physiol 7:6 (2007)).
Serum levels of alkaline phosphatase (ALP) and γ-glutamyltransferase (γGT) are commonly used to diagnose PBC (Heathcote, E J, Management of primary biliary cirrhosis. The American Association for the Study of Liver Diseases practice guidelines, Hepatology 31:1005-1013 (2000)); therefore, were measured serum levels of ALP and γGT in mouse serum samples using the Alkaline Phosphatase Assay Kit and γ-Glutamyltransferase Activity Colorimetric Assay Kit, respectively (Abcam; Cambridge, Mass.).
Early stage PBC is identified by cholangiocyte proliferation, whereas late stage PBC is characterized by ductopenia. […]

secretin [Sct]
HSC activation (SYP-9 staining): further enhanced | biliary senescence (p16, p18, p21, CCL2): further increased | cholangiocyte apoptosis (TUNEL-positive cholangiocytes): further reduced | liver damage (H&E: portal inflammation, inflammatory infiltration, lobular necrosis): further increased | Sct, SR, CFTR and AE2 expression (vs saline treated): further increase | collagen content / deposition (Sirius Red), hepatic fibrosis (vs saline treated): further enhanced | serum levels of ALP and γGT (vs saline treated): further increased | intrahepatic bile duct mass (IBDM, CK-19) (vs saline treated, 1 wk minipump): further increase
